The assay relates to CEM cells HIV-1 protection, formazan growth assay. Nature of the assay: NCI AIDS Antiviral Assay. As to conditions: for IC50: measured here: growth of uninfected CEM cells. The procedure, abridged:
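Human CEM cells, uninfected and HIV-1-infected, exposed to five drug concentrations; growth measured by soluble formazan assay and scored as percent protection from infection, with protecting compounds retested.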

We go through 74 molecules from PubChem BioAssay AID179 (DTP/NCI, 2004).

Usually EC50 stands for the midpoint of the concentration-response curve. What is called IC50 is the concentration at which inhibition is half-maximal. A high value points to weaker potency in that assay.

The structures appear in SMILES notation. Active and inactive are the calls of the source.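 How the source made its calls: active means compounds giving half or more protection of infected cells from virus-caused growth loss, again on retest; inactive means the rest.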 Some results are limits rather than exact numbers.

For `O=c1c2ccccc2nc(/C=C(\O)c2ccncc2)n1-c1ccc(Cl)cc1`, the EC50 was above 1.45 µM and the IC50 was above 1.45 µM. Take `O=S(=O)(O)c1cc(N=Nc2cc(S(=O)(=O)O)c3cccnc3c2O)ccc1C(O)C(O)c1ccc(N=Nc2cc(S(=O)(=O)O)c3cccnc3c2O)cc1S(=O)(=O)O` (centres undefined): the EC50 was 11.2 µM and the concentration for half-maximal inhibition (IC50) is above 200 µM. Turning to `O=C(CCl)N1CCN(c2ccccn2)CC1`, the EC50 was above 1050 µM. In the case of `CCSC(=O)/C=C1\CN(C(=O)OC(C)(C)C)C1C(=O)OC(C)(C)C` (centres undefined), the EC50 is above 200 µM and the half-inhibitory concentration (IC50) came out at 1.1 µM. Regarding `CC(=O)OC1C(CCl)OC(N=[N+]=[N-])C(OC(C)=O)C1OC(C)=O` (centres undefined), the result was inactive. Still for that read-out and setting: the entry for `O=c1nc(NC(c2ccccc2)(c2ccccc2)c2ccccc2)ccn1CCCl` is “inactive”. Consider `COc1cc2c(cc1OC)[C@H]1C(COC(=O)Nc3ccccc3)CN1CC2` (some centres undefined), for which the EC50 is above 676 µM and the IC50 turned out to be 93.3 µM. For the molecule `CC(=O)N(C(C)=O)c1ncc(-n2nc(-c3ccccc3)cc2-c2ccccc2)c(-c2ccccc2)n1`, the EC50 is above 200 µM and the IC50 came to 115 µM. For `COC1(C)CCC(OS(C)(=O)=O)CO1` (centres undefined), in that order: above 200 µM and above 200 µM. Turning to `NC1CC(=O)c2c1sc(Cl)c2Cl` (centres undefined), the result was inactive. As for `CC1C(c2ccccc2)=Nn2c(=O)n(-c3ccccc3)c(=O)n21` (centres undefined), the EC50 was above 200 µM and the IC50 is above 200 µM.

As to `COc1cc2ccnc3c2c(c1OC)-c1coc(SC)c1-3`, the result was inactive.

For `COC(=O)[C@](NC(=O)OCc1ccccc1)([C@@H](C)S(=O)c1ccc(C)cc1)C(F)(F)F` (some centres undefined), the EC50 is above 200 µM and the IC50 was determined as 29.5 µM. In the case of `NC1CCC[C@@H](O)[C@H]1O` (some centres undefined), the EC50 was above 200 µM and the IC50 was above 200 µM.

For the molecule `C/C(CC(=O)Nc1cccc([N+](=O)[O-])c1)=N\NC(=O)C[n+]1ccccc1`, the EC50 is above 631 µM and the IC50 was determined as 240 µM. For `O=C(CN1CCN(c2cccc(Cl)c2)CC1)N1CCc2c([nH]c3ccccc23)C1c1cccnc1` (centres undefined), in that order: above 2.14 µM and above 2.14 µM. For `CCCCCC1=CC(=O)C1(Cl)Cl`, in that order: above 200 µM and 27.5 µM. For `CC1=CC(S)NC(=S)N1` (centres undefined), the EC50 is above 200 µM and the IC50 is above 200 µM. As to `Cc1cc2c(-c3ccccc3)cc(=O)[nH]c2cc1N`, the EC50 was 186 µM and the 50% inhibitory concentration (IC50) is above 200 µM. For `COc1cccc(N/C(C)=C2/CCOC2=O)c1`, in that order: above 200 µM and 105 µM. For the molecule `O=C(Sc1c(-c2ccccc2)c(=O)n(-c2ccccc2)c(=S)n1-c1ccccc1)c1ccco1`, the EC50 was above 200 µM and the IC50 came out at 34.7 µM. For `COc1ccc(C(=O)N2CCc3c([nH]c4ccccc34)C2C(=O)O)o1` (centres undefined) the same measures were above 39.8 µM and 17.4 µM. Regarding `COC1C=CC23c4cc5c(cc4COC2(O)CN(C)C3C1)OCO5` (centres undefined), the EC50 was above 550 µM and the IC50 is above 550 µM. Turning to `C1CSCCCSCCCSCCCSCCCSCCCSCCCSCCCSC1`, the EC50 is above 8.71 µM and the IC50 was above 8.71 µM. In the case of `N#CC(C(=O)/C(=N/NC(=O)c1ccccc1O)C(C#N)c1ccccc1)c1ccccc1` (centres undefined), the EC50 was above 589 µM and the IC50 came out at 10.7 µM. `O=C(CO[N+](=O)[O-])OC/C=C/c1ccccc1`: the outcome was inactive. On to `COc1cc(C#N)c(NC(=S)N2CCN(C(=O)c3ccco3)CC2)cc1OC`, for which the EC50 was above 200 µM and the IC50 stood at 120 µM. Turning to `O=Nc1ccc(Cl)cc1`, the result was inactive. Take `COC(=O)CNS(=O)(=O)c1ccc(-c2c3nc(c(-c4ccc(S(=O)(=O)NCC(=O)OC)cc4)c4ccc([nH]4)c(-c4ccc(S(=O)(=O)NCC(=O)OC)cc4)c4nc(c(-c5ccc(S(=O)(=O)NCC(=O)OC)cc5)c5ccc2[nH]5)C=C4)C=C3)cc1`: the EC50 was above 100 µM and the IC50 is above 100 µM.

On to `CC(=O)c1sc2[n+](c1C)C(=O)/C(=C\c1ccccc1Cl)S2`, for which the concentration giving a half-maximal response (EC50) was 31.6 µM and the IC50 stood at 110 µM. For `CC(=O)/C(=C\C1=CCCO1)C(=O)Nc1ccccc1C` the same measures were above 26.3 µM and above 26.3 µM.

On to `NC(c1ccccc1)P(=O)(O)O` (centres undefined), for which the EC50 was above 200 µM and the IC50 was above 200 µM. In the case of `O=C1NCCN1/N=C/c1c(Cl)n(-c2ccccc2)c2ccccc12`, the EC50 was above 200 µM and the IC50 was 16.6 µM. In the case of `Cc1nc(Nc2ccccc2C)c2ccsc2n1`, the EC50 is above 263 µM and the IC50 is above 263 µM. As to `Cc1cn(C2C=CC(=O)C(C)O2)c(=O)[nH]c1=O` (centres undefined), the EC50 was above 1050 µM and the IC50 is 6.31 µM. For `COc1cc(C2c3c(ccc4ccccc34)C(=O)C3CCC(=O)N32)cc(OC)c1OC` (centres undefined), in that order: above 50.1 µM and 18.2 µM. For `CCOC(=O)/C=C/c1ccc([N+](=O)[O-])cc1`, in that order: above 32.4 µM and above 32.4 µM.

In the case of `COc1cc(O)cc2c1C(=O)C(C)O2` (centres undefined), the EC50 was above 200 µM and the IC50 is above 200 µM. For the molecule `COc1ccc(/C=C/C(=O)OC/C=C/c2ccc3c(c2)OCO3)cc1OC`, the EC50 was above 200 µM and the IC50 was 102 µM.

Consider `S=C1N(c2ccc(Br)cc2)C2=Nc3ccccc3SC(=C2N=Nc2ccccc2Cl)N1c1ccc(Cl)cc1`, for which the EC50 was above 34.7 µM and the IC50 is 6.76 µM. For `NC(=S)N/N=C1\CCCc2ccccc21`, in that order: above 162 µM and 81.3 µM.

Turning to `O=c1oc2ccccc2c(O)c1/C=N/C(=S)NCCc1ccccc1`, the EC50 is above 200 µM and the IC50 was above 200 µM. As for `O=c1ccc(=O)n(-c2ccccc2)[nH]1`, the EC50 is above 955 µM and the IC50 was above 955 µM. `CC(=O)OC(/C=C1/C=CC(=O)O1)COC(=O)c1ccccc1` (centres undefined): the EC50 is above 309 µM and the IC50 was determined as 5.89 µM.

As for `CC(=O)OC12c3ccccc3C(c3ccccc31)C1C(=O)N(c3ccccc3O)C(=O)C12` (centres undefined), the EC50 was 100 µM and the IC50 turned out to be 105 µM. For `CC(=O)Nc1ccc(/C=C(\C#N)c2ccc(C)cc2)cc1` the same measures were above 200 µM and above 200 µM.

For the molecule `CC(C)c1ccccc1SCc1cc(=O)cc(CSc2ccccc2C(C)C)o1`, the EC50 was above 200 µM and the IC50 was 11.7 µM.

On to `Cc1ccnc(NS(=O)(=O)c2ccc(N=Cc3ccccc3O)cc2)n1`, for which the EC50 is above 200 µM and the IC50 is above 200 µM. On to `Cc1ccc(S(=O)(=O)NCCSS(=O)(=O)c2ccc(C)cc2)cc1`, for which the EC50 was above 25.7 µM and the half-maximal inhibitory concentration (IC50) is above 25.7 µM.

On to `CSc1ncc2c(C#N)c3n(C)c4ccccc4n3c(=O)c2n1`, for which the EC50 was above 100 µM and the IC50 is above 100 µM. As for `COc1ccc(Cl)[c]([Bi]([c]2cc(OC)ccc2Cl)[c]2cc(OC)ccc2Cl)c1`, the EC50 is above 39.8 µM and the half-inhibitory concentration (IC50) is above 39.8 µM. For `COP1(=O)NCc2ncccc2O1` (centres undefined), the EC50 is above 200 µM and the IC50 was above 200 µM. Take `CN(/N=C\c1ccccc1Cl)C(c1ccccc1Cl)N(C)/N=C/c1ccccc1Cl` (centres undefined): the outcome was inactive. Take `Oc1cc2c(cc1O)C1c3ccc(O)c(O)c3OCC1(O)C2` (centres undefined): the EC50 is above 200 µM and the IC50 turned out to be 9.55 µM.

On to `CNCCCCN(C)/[N+]([O-])=N\O`, for which the EC50 was above 8910 µM and the IC50 turned out to be 4070 µM. For `CCCCN1C[C@H](OC(=O)CCC)[C@@H](OC(=O)CCC)[C@H](OC(=O)CCC)[C@H]1COC(=O)CCC`, in that order: above 200 µM and above 200 µM. For `O=C1C2C(C(=O)N1OS(=O)(=O)c1ccccc1)N(Cc1ccccc1)C(=O)N2Cc1ccccc1` (centres undefined) the same measures were above 7.59 µM and above 7.59 µM. `CC1(C)N/C(=C\C=O)C(C)(C)N1O`: the EC50 was above 200 µM and the concentration for half-maximal inhibition (IC50) was above 200 µM.

In the case of `COC(=O)c1cc2c(c3c1CC(Cc1ccccc1)C3=O)CCC2` (centres undefined), the EC50 was above 200 µM and the IC50 was determined as 33.1 µM. For `CC/C(Cl)=N\OC(=O)Nc1ccc(OC)cc1` the same measures were above 20 µM and 6.76 µM. As for `COC(=O)C(C)(C)C(OP1(=S)N(C)CCN1C)=C(C)C`, the EC50 is above 155 µM and the IC50 was above 155 µM.

As for `COc1ccc2nc3cc([N+](=O)[O-])ccc3c(NCCCN(CCO)CCO)c2c1`, the EC50 was above 200 µM and the IC50 worked out at 2.51 µM. As for `CC(=O)N/C(=C\c1ccc(/C=C(\NC(C)=O)c2nc3ccc(Cl)cc3[nH]2)cc1)c1nc2ccccc2[nH]1`, the outcome was inactive.

Take `O=C1O/C(=C(\Br)c2cccc3ccccc23)c2ccccc21`: the EC50 was above 7.76 µM and the IC50 is above 7.76 µM. In the case of `O=C1/C(=C\c2ccccc2O)Cc2ccccc21`, the EC50 was above 148 µM and the IC50 amounted to 28.2 µM. For `CC(C)=C1CCC(C)C/C1=N\NC(N)=S` (centres undefined), in that order: above 200 µM and 19.5 µM. For `C=CC(C)(C)c1c(OC(C)=O)cc2oc3c(OC(C)=O)c(OC(C)=O)cc(CC=C(C)C)c3c(=O)c2c1O`, in that order: above 200 µM and 120 µM. For `CCN(CC)c1nc(=O)c(C(=O)C(C)(C)C)c(C(C)(C)C)o1`, in that order: above 200 µM and above 200 µM.

On to `CSC(SC)=C1Sc2cccc(Cl)c2S1`, for which the EC50 is above 9.33 µM and the IC50 is above 9.33 µM. For the molecule `O=S(=O)(O)CCCCS(=O)(=O)O`, the EC50 was above 200 µM and the IC50 is above 200 µM. As for `CCC1(c2ccccc2)C(=O)N=C(c2ccccc2)N1CCc1ccccc1` (centres undefined), the EC50 was above 200 µM and the IC50 was above 200 µM.

For `COc1ccc(C2CC(c3ccc4ccccc4c3O)=NN2)cc1OC` (centres undefined), the EC50 is above 200 µM and the IC50 stood at 42.7 µM.

Turning to `O=C(CCc1nc(=S)[nH][nH]1)Nc1ccccc1Cl`, the EC50 was above 457 µM and the IC50 was above 457 µM. For `CC(CC(=O)c1ccccc1)C(Sc1ccccc1)(Sc1ccccc1)Sc1ccccc1` (centres undefined), the EC50 was above 200 µM and the 50% inhibitory concentration (IC50) was above 100 µM.
